Experimental data published in PubChem BioAssay (NCI).
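Assay format: 96-well plates, 48-hour exposure. The concentration for 50% growth inhibition is given as GI50. Definition used: TGI = concentration required for complete inhibition of growth.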

Legend:
Assay in all cases: NCI-60 cell line screen, 48 h
ACHN renal = test system: ACHN renal
TK-10 renal = test system: TK-10 renal
KM12 colon = test system: KM12 colon
SK-MEL-2 melanoma = test system: SK-MEL-2 melanoma
SW-620 colon = test system: SW-620 colon
OVCAR-8 ovarian = test system: OVCAR-8 ovarian
SNB-19 CNS = test system: SNB-19 CNS
HOP-92 NSCLC = test system: HOP-92 NSCLC
CCRF-CEM leukemia = test system: CCRF-CEM leukemia
T-47D breast = test system: T-47D breast
HCC-2998 colon = test system: HCC-2998 colon
OVCAR-3 ovarian = test system: OVCAR-3 ovarian
SR leukemia = test system: SR leukemia
HCT-15 colon = test system: HCT-15 colon
K-562 leukemia = test system: K-562 leukemia
U251 CNS = test system: U251 CNS
MDA-MB-435 = test system: MDA-MB-435
SK-MEL-28 melanoma = test system: SK-MEL-28 melanoma
HL-60(TB) leukemia = test system: HL-60(TB) leukemia
SN12C renal = test system: SN12C renal
NCI/ADR-RES ovarian = test system: NCI/ADR-RES ovarian
SF-268 CNS = test system: SF-268 CNS
A498 renal = test system: A498 renal
DU-145 prostate = test system: DU-145 prostate
M14 melanoma = test system: M14 melanoma
A549 NSCLC = test system: A549 NSCLC
OVCAR-4 ovarian = test system: OVCAR-4 ovarian
MOLT-4 leukemia = test system: MOLT-4 leukemia
SK-MEL-5 melanoma = test system: SK-MEL-5 melanoma
HCT-116 colon = test system: HCT-116 colon
MDA-MB-231 breast = test system: MDA-MB-231 breast
SF-539 CNS = test system: SF-539 CNS
HT29 colon = test system: HT29 colon
UACC-62 melanoma = test system: UACC-62 melanoma
HS 578T breast = test system: HS 578T breast
COLO 205 colon = test system: COLO 205 colon
SF-295 CNS = test system: SF-295 CNS
UACC-257 melanoma = test system: UACC-257 melanoma
IGROV1 ovarian = test system: IGROV1 ovarian
UO-31 renal = test system: UO-31 renal
NCI-H460 lung = test system: NCI-H460 lung
SK-OV-3 ovarian = test system: SK-OV-3 ovarian
HOP-62 NSCLC = test system: HOP-62 NSCLC
SNB-75 CNS = test system: SNB-75 CNS
NCI-H23 lung = test system: NCI-H23 lung
CAKI-1 renal = test system: CAKI-1 renal
EKVX NSCLC = test system: EKVX NSCLC
BT-549 breast = test system: BT-549 breast
NCI-H226 lung = test system: NCI-H226 lung
NCI-H522 lung = test system: NCI-H522 lung
MALME-3M melanoma = test system: MALME-3M melanoma
OVCAR-5 ovarian = test system: OVCAR-5 ovarian
786-0 renal = test system: 786-0 renal
PC-3 prostate = test system: PC-3 prostate
RXF 393 renal = test system: RXF 393 renal

Compound CC(=O)Nc1cccc(Nc2nc(N[C@@H](C)c3ccccc3)c3ccccc3n2)c1 has a GI50 (ACHN renal) of 672 nM, a TGI (ACHN renal) of 6.9 µM and a GI50 (TK-10 renal) of 6.69 µM. For the same compound, the TGI (TK-10 renal) was 21.2 µM, the GI50 (KM12 colon) was 439 nM and the TGI (KM12 colon) was 6.45 µM. It also gave a GI50 (SK-MEL-2 melanoma) of 832 nM, a TGI (SK-MEL-2 melanoma) of 6.01 µM and a GI50 (SW-620 colon) of 425 nM. The TGI (SW-620 colon) was 5.28 µM, the TGI (OVCAR-8 ovarian) was 9.3 µM and the GI50 (SNB-19 CNS) was 500 nM. The TGI (SNB-19 CNS) was 12.6 µM, the GI50 (HOP-92 NSCLC) was 373 nM and the TGI (HOP-92 NSCLC) was 4.94 µM. The GI50 (CCRF-CEM leukemia) was 372 nM, the GI50 (T-47D breast) was 512 nM and the TGI (T-47D breast) was 6.47 µM. The GI50 (HCC-2998 colon) was 982 nM, the TGI (HCC-2998 colon) was 2530 nM and the GI50 (OVCAR-3 ovarian) was 359 nM. It also gave a TGI (OVCAR-3 ovarian) of 1540 nM, a GI50 (SR leukemia) of 253 nM and a TGI (SR leukemia) of 2580 nM. The GI50 (HCT-15 colon) was 355 nM, the TGI (HCT-15 colon) was 1910 nM and the GI50 (K-562 leukemia) was 270 nM. For the same compound, the TGI (K-562 leukemia) was greater than 100 µM, the GI50 (U251 CNS) was 525 nM and the TGI (U251 CNS) was 2900 nM. It also gave a GI50 (MDA-MB-435) of 169 nM, a TGI (MDA-MB-435) of 419 nM and a GI50 (SK-MEL-28 melanoma) of 1000 nM. For the same compound, the TGI (SK-MEL-28 melanoma) was 2430 nM, the GI50 (HL-60(TB) leukemia) was 303 nM and the TGI (HL-60(TB) leukemia) was 868 nM. The GI50 (SN12C renal) was 608 nM, the TGI (SN12C renal) was 2860 nM and the GI50 (NCI/ADR-RES ovarian) was 464 nM. For the same compound, the TGI (NCI/ADR-RES ovarian) was 4.75 µM, the GI50 (SF-268 CNS) was 571 nM and the TGI (SF-268 CNS) was 3.28 µM. For the same compound, the GI50 (A498 renal) was 278 nM, the TGI (A498 renal) was 1500 nM and the GI50 (DU-145 prostate) was 651 nM. The TGI (DU-145 prostate) was 6.4 µM, the GI50 (M14 melanoma) was 401 nM and the TGI (M14 melanoma) was 1610 nM. The GI50 (A549 NSCLC) was 601 nM, the TGI (A549 NSCLC) was 5.97 µM and the GI50 (OVCAR-4 ovarian) was 784 nM. For the same compound, the TGI (OVCAR-4 ovarian) was 11.8 µM, the GI50 (MOLT-4 leukemia) was 491 nM and the TGI (MOLT-4 leukemia) was 6.82 µM. For the same compound, the GI50 (SK-MEL-5 melanoma) was 292 nM, the TGI (SK-MEL-5 melanoma) was 1070 nM and the GI50 (HCT-116 colon) was 459 nM. The TGI (HCT-116 colon) was 1940 nM, the GI50 (MDA-MB-231 breast) was 942 nM and the TGI (MDA-MB-231 breast) was 3.6 µM. For the same compound, the GI50 (SF-539 CNS) was 318 nM, the TGI (SF-539 CNS) was 1140 nM and the GI50 (HT29 colon) was 362 nM. The TGI (HT29 colon) was 5.05 µM, the GI50 (UACC-62 melanoma) was 380 nM and the TGI (UACC-62 melanoma) was 1930 nM. The GI50 (HS 578T breast) was 361 nM, the TGI (HS 578T breast) was 2510 nM and the GI50 (COLO 205 colon) was 625 nM. The TGI (COLO 205 colon) was 4.34 µM, the GI50 (SF-295 CNS) was 377 nM and the TGI (SF-295 CNS) was 1560 nM. The GI50 (UACC-257 melanoma) was 1180 nM, the TGI (UACC-257 melanoma) was 3.43 µM and the GI50 (IGROV1 ovarian) was 507 nM. The TGI (IGROV1 ovarian) was 2950 nM, the GI50 (UO-31 renal) was 697 nM and the TGI (UO-31 renal) was 2330 nM. It also gave a GI50 (NCI-H460 lung) of 356 nM, a TGI (NCI-H460 lung) of 2100 nM and a GI50 (SK-OV-3 ovarian) of 679 nM. It also gave a TGI (SK-OV-3 ovarian) of 15.2 µM, a GI50 (HOP-62 NSCLC) of 808 nM and a TGI (HOP-62 NSCLC) of 7.08 µM. It also gave a GI50 (SNB-75 CNS) of 194 nM, a TGI (SNB-75 CNS) of 820 nM and a GI50 (NCI-H23 lung) of 387 nM. For the same compound, the TGI (NCI-H23 lung) was 2690 nM, the GI50 (CAKI-1 renal) was 374 nM and the TGI (CAKI-1 renal) was 2770 nM. It also gave a GI50 (EKVX NSCLC) of 656 nM, a TGI (EKVX NSCLC) of 16.5 µM and a GI50 (BT-549 breast) of 3.62 µM. It also gave a TGI (BT-549 breast) of 18.7 µM, a GI50 (NCI-H226 lung) of 738 nM and a TGI (NCI-H226 lung) of 21.6 µM. It also gave a GI50 (NCI-H522 lung) of 322 nM, a TGI (NCI-H522 lung) of 2180 nM and a GI50 (MALME-3M melanoma) of 470 nM. The TGI (MALME-3M melanoma) was 1900 nM, the GI50 (OVCAR-5 ovarian) was 1390 nM and the TGI (OVCAR-5 ovarian) was 11.6 µM. The GI50 (786-0 renal) was 630 nM, the TGI (786-0 renal) was 4.28 µM and the GI50 (PC-3 prostate) was 408 nM. The TGI (PC-3 prostate) was 11.4 µM, the GI50 (RXF 393 renal) was 154 nM and the TGI (RXF 393 renal) was 581 nM.
